The values that follow are results of earlier work, collected in paper PMC12308805, “Ultrahigh-Throughput Virtual Screening Strategies against PPI Targets: A Case Study of STAT Inhibitors” (Journal of Chemical Information and Modeling, 2025).

The data set relates to STAT3. As to conditions: sheet 6QHD_actives_decoys, retrospective screening set for STAT3 SH2 domain (PDB 6QHD); decoys are presumed inactives, not tested; ref DUD-E; cited from earlier work.
With `CCOC(=O)c1ccc(NC(=O)CCN2C(=O)/C(=C3\SC(=S)N(CCC(=O)Nc4ccc(C(=O)OCC)cc4)C3=O)SC2=S)cc1` [Decoy869], the Type entry is on record as “Inactive (Decoy)”.
`Cc1cccc(N(C(=O)c2snc(C(N)=O)c2N)[C@H](C(=O)NCCC(C)C)c2ccc(N(C)C)cc2)c1` [Decoy870]: the Type entry is on record as “Inactive (Decoy)”.
Take `COc1cc(NC(=O)CCSc2nnc(N/N=C/c3c(O)ccc4ccccc34)n2N)cc(OC)c1` [Decoy871]: the Type entry was “Inactive (Decoy)”.
Take `COC(=O)c1[nH]c(C)c(C(=O)C2=C(O)C(=O)N(CCN3CCOCC3)[C@@H]2c2cc(OC)c(OC)c(OC)c2)c1C` [Decoy872]: the Type entry is “Inactive (Decoy)”.
As to `COC(=O)c1[nH]c(C)c(C(=O)C2=C(O)C(=O)N(CCN3CCOCC3)[C@H]2c2cc(OC)c(OC)c(OC)c2)c1C` [Decoy873], the Type result is “Inactive (Decoy)”.
Turning to `CC(C)N(C(=O)c1ccc(C(=O)Nc2cccc(NC(=O)c3ccc(C(=O)N(C(C)C)C(C)C)cc3)n2)cc1)C(C)C` [Decoy874], the Type entry is on record as “Inactive (Decoy)”.
Regarding `CC(=C\C(=O)O)/C=C(\C)C[C@@H](C)CCCC[C@@H](O)[C@@H](CO)C(=O)OC[C@H]1O[C@@H](O)[C@@H](O)[C@@H](O)[C@H]1O` [Decoy875], the Type entry is given as “Inactive (Decoy)”.
Consider `CC(=C\C(=O)O)/C=C(\C)C[C@@H](C)CCCC[C@H](O)[C@@H](CO)C(=O)OC[C@H]1O[C@@H](O)[C@@H](O)[C@@H](O)[C@H]1O` [Decoy876], for which the Type result is given as “Inactive (Decoy)”.
Take `CCN(CC)c1ccc(/C=N/Nc2nnc(SCC(=O)Nc3ccc(OC)cc3OC)n2N)c(O)c1` [Decoy877]: the Type entry is on record as “Inactive (Decoy)”.
Turning to `O[C@@H](CNCCOc1ccccc1OCCNC[C@H](O)COc1cccc2[nH]c3ccccc3c12)COc1cccc2[nH]c3ccccc3c12` [Decoy878], the Type entry is “Inactive (Decoy)”.
For the compound `N[C@@H](CCC(=O)N[C@@H](CSCCN(CCSC[C@H](NC(=O)CC[C@H](N)C(=O)O)C(=O)NCC(=O)O)[P@](N)(=O)O)C(=O)NCC(=O)O)C(=O)O` [Decoy879], the Type result was “Inactive (Decoy)”.
Turning to `CC(=O)OC[C@@H]1O[C@@H](Oc2cc(O)cc(O)c2C(=O)CCc2ccc([N+](=O)[O-])cc2)[C@@H](OC(C)=O)[C@H](OC(C)=O)[C@H]1OC(C)=O` [Decoy880], the Type entry was “Inactive (Decoy)”.
For `CC(=O)OC[C@H]1O[C@@H](Oc2cc(O)cc(O)c2C(=O)CCc2ccc([N+](=O)[O-])cc2)[C@@H](OC(C)=O)[C@H](OC(C)=O)[C@H]1OC(C)=O` [Decoy881], the Type entry is reported as “Inactive (Decoy)”.
In the case of `O=C(O)CN(CC(=O)O)C[C@@H](Cc1ccc(NCCCCCN2C(=O)C=CC2=O)cc1)N(CC(=O)O)CC(=O)O` [Decoy882], the Type result is “Inactive (Decoy)”.
On to `CO[C@@H]1[C@@H](OC(N)=O)[C@H](O)[C@@H](Oc2ccc3c(O)c(NC(=O)c4ccc(O)c(CC=C(C)C)c4)c(=O)oc3c2C)OC1(C)C` [Decoy883], for which the Type entry is “Inactive (Decoy)”.
For `COc1cc(NC(=S)Nc2ccc(S(=O)(=O)/N=c3/cc(OC)nc(OC)[nH]3)cc2)cc(OC)c1` [Decoy884], the Type entry is on record as “Inactive (Decoy)”.
As for `CC(=O)O[C@@H]1[C@@H](O)[C@@H](O[C@@H](C/N=C/c2c(O)ccc3ccccc23)[C@@H](CO)O[C@H](O)C/N=C/c2c(O)ccc3ccccc23)O[C@@H](CO)[C@H]1O` [Decoy885], the Type result is reported as “Inactive (Decoy)”.
For `O=C(OC[C@@H]1O[C@H](Oc2ccc(O)cc2COC(=O)[C@@]2(O)[C@@H](O)CCC(=O)[C@@H]2O)[C@H](OC(=O)[C@H]2C=CCC2)[C@H](O)[C@@H]1O)[C@H]1C=CCC1` [Decoy886], the Type entry was “Inactive (Decoy)”.
`COc1cc(/C(C)=N/NC(=O)c2nnn(-c3nonc3N)c2COc2ccc(F)cc2)ccc1OCc1ccc(Cl)cc1` [Decoy887]: the Type result is listed as “Inactive (Decoy)”.
Consider `COc1ccc(C(OC[C@H]2O[C@H](Oc3ccc([N+](=O)[O-])cc3)[C@@H](O)[C@@H](O)[C@@H]2O)(c2ccccc2)c2ccc(OC)cc2)cc1` [Decoy888], for which the Type result is listed as “Inactive (Decoy)”.
Take `C[n+]1c(N[N-]S(=O)(=O)c2cccc(C(=O)NC(C)(C)CC(C)(C)CC(C)(C)C)c2)sc2ccc(S(=O)(=O)C(F)F)cc21` [Decoy889]: the Type result is recorded as “Inactive (Decoy)”.
Consider `CCN(CC)S(=O)(=O)c1ccc(NC(=O)CSc2n[nH]c(N/N=C/c3ccccc3F)n2)cc1` [Decoy890], for which the Type entry is “Inactive (Decoy)”.
In the case of `O=C(O)CCNS(=O)(=O)c1ccc(NCCc2ccc(C(F)(F)F)cc2)c([N+](=O)[O-])c1` [Decoy891], the Type result is recorded as “Inactive (Decoy)”.
`O=C(O)C[C@H](NS(=O)(=O)c1cc(S(=O)(=O)N[C@H](CC(=O)O)c2ccccc2)c2cccc3c2c1NC3=O)c1ccccc1` [Decoy892]: the Type result is recorded as “Inactive (Decoy)”.
For `O=C(O)C[C@H](NS(=O)(=O)c1cc(S(=O)(=O)N[C@@H](CC(=O)O)c2ccccc2)c2cccc3c2c1NC3=O)c1ccccc1` [Decoy893], the Type entry was “Inactive (Decoy)”.
Consider `CN(CCO)c1ccc(/C=N\Nc2ccc(S(=O)(=O)Nc3ccccc3C(=O)O)cc2[N+](=O)[O-])cc1` [Decoy894], for which the Type entry is listed as “Inactive (Decoy)”.
Turning to `CC(=O)[C@@H]1CC[C@H]2[C@H]3CC=C4C[C@@H](O[C@@H]5O[C@H](CO)[C@@H](O)[C@H](O)[C@H]5O[C@@H]5O[C@H](CO)[C@@H](O)[C@H](O)[C@H]5O)CC[C@]4(C)[C@@H]3CC[C@]12C` [Decoy895], the Type entry is on record as “Inactive (Decoy)”.
As for `O=C1N=C([C@]2(C3=Nc4nnc(/N=C(\O)Nc5ccc(Cl)cc5)n4C3=O)Cc3ccccc3C2=O)n2c(/N=C(\O)Nc3ccc(Cl)cc3)nnc21` [Decoy896], the Type entry was “Inactive (Decoy)”.
In the case of `CCCOc1ccc([C@@H]2c3c(n[nH]c3-c3cc(C)cc(C)c3O)C(=O)N2CCCOC(C)C)cc1OCC` [Decoy897], the Type entry was “Inactive (Decoy)”.
In the case of `COc1ccc(CCN/C(=N/c2nc(C)cc(C)n2)NS(=O)(=O)c2ccc(Br)cc2)cc1OC` [Decoy898], the Type result is “Inactive (Decoy)”.
On to `COc1ccc(CCNc2ccc3nnc(CCNS(=O)(=O)c4ccccc4OC)n3n2)cc1OC` [Decoy899], for which the Type entry was “Inactive (Decoy)”.
As for `COc1ccccc1OCCNC[C@H](O)COc1cccc2c1c1ccccc1n2C[C@H](O)COc1cccc2[nH]c3ccccc3c12` [Decoy900], the Type result is on record as “Inactive (Decoy)”.
Consider `Cc1cc(C)nc(N/C(=N/C(=O)Nc2cccc(Cl)c2)NCCSCc2[nH]cnc2C)n1` [Decoy901], for which the Type result is on record as “Inactive (Decoy)”.
As to `CCc1ccc2c(c1)[C@@]1(N[C@@H](Cc3ccc(O)c(O)c3)[C@H]3C(=O)N(CCc4ccc(OC)c(OC)c4)C(=O)[C@H]31)C(=O)N2` [Decoy902], the Type result is “Inactive (Decoy)”.
In the case of `COc1cc(-c2ccc(NC(=O)c3ccc(OC)c(OC)c3)c(OC)c2)ccc1NC(=O)c1ccc(OC)c(OC)c1` [Decoy903], the Type result is reported as “Inactive (Decoy)”.
Consider `Cc1noc(C)c1CSc1ncccc1C(=O)O[C@H](C)C(=O)Nc1sccc1C(N)=O` [Decoy904], for which the Type entry is given as “Inactive (Decoy)”.
Turning to `CC(C)(CC[C@@H](O)[C@@](C)(O)[C@H]1CC[C@@]2(O)C3=CC(=O)[C@H]4C[C@@H](O)[C@@H](O)C[C@]4(C)[C@@H]3CC[C@]12C)O[C@H]1O[C@@H](CO)[C@@H](O)[C@@H](O)[C@H]1O` [Decoy905], the Type entry is on record as “Inactive (Decoy)”.
Consider `CCN(CC)c1ccc(NC(=O)CSc2n[nH]c(N/N=C/c3cc(OC)c(O)cc3[N+](=O)[O-])n2)cc1` [Decoy906], for which the Type entry is given as “Inactive (Decoy)”.
For the compound `CCN(CC)C(=O)c1c[nH]c2ccc(S(=O)(=O)Nc3ccc4c(c3)OCCO4)cc2c1=O` [Decoy907], the Type entry was “Inactive (Decoy)”.
Consider `CC(=O)O[C@@H]1[C@@H](O)[C@H](CO)O[C@H](O[C@@H](/C=N/c2cnc([N+](=O)[O-])s2)[C@@H](CO)O[C@H](O)/C=N/c2cnc([N+](=O)[O-])s2)[C@@H]1O` [Decoy908], for which the Type result is on record as “Inactive (Decoy)”.
In the case of `CC(=O)O[C@H]1[C@@H](O)[C@@H](O[C@@H](/C=N\c2cnc([N+](=O)[O-])s2)[C@@H](CO)O[C@H](O)/C=N/c2cnc([N+](=O)[O-])s2)O[C@@H](CO)[C@H]1O` [Decoy909], the Type result was “Inactive (Decoy)”.
On to `COc1cc([C@H]2OC[C@H]3[C@@H]2CO[C@H]3c2ccc(O[C@@H]3O[C@H](CO[C@@H]4O[C@@H](C)[C@H](O)[C@@H](O)[C@H]4O)[C@@H](O)[C@H](O)[C@H]3O)c(OC)c2)ccc1O` [Decoy911], for which the Type entry is on record as “Inactive (Decoy)”.
As to `O=C(CNS(=O)(=O)c1ccc(NC(=S)Nc2ccc([N+](=O)[O-])cc2)cc1)c1ccccc1` [Decoy913], the Type result was “Inactive (Decoy)”.
As to `COC(=O)c1sc(NC(=O)CCCS(=O)(=O)c2nc(-c3ccc(OC)c(OC)c3)cc(C(F)(F)F)n2)c(C(N)=O)c1C` [Decoy915], the Type entry was “Inactive (Decoy)”.
For `CCOC(=O)c1sc(NC(=O)CSc2n[nH]c(N/N=C/c3ccc(C)cc3)n2)c(C#N)c1C` [Decoy916], the Type result is “Inactive (Decoy)”.
For the compound `CCC(CC)C(=O)Nc1cccc(C(=O)Nc2ccc(S(=O)(=O)Nc3nccc(C)n3)cc2)c1` [Decoy917], the Type entry was “Inactive (Decoy)”.
With `Cc1ccc(S(=O)(=O)Nc2ccc(N3CCN(CC(=O)NCC(C)C)CC3)cc2C(=O)O)cc1` [Decoy918], the Type entry is “Inactive (Decoy)”.
As for `CCn1cc([C@@H](C)NC(=S)Nc2ccc(S(=O)(=O)Nc3ncccn3)cc2)c(C)n1` [Decoy919], the Type entry is “Inactive (Decoy)”.
In the case of `C=CCOC(=O)c1sc(NC(=O)[C@@H](CC)n2c(N)nnc2SCc2ccccc2Cl)nc1C` [Decoy920], the Type result is given as “Inactive (Decoy)”.
Turning to `COc1ccc(CNc2nc(NCc3ccc(OC)c(OC)c3)n(C(=O)c3ccc(C(C)(C)C)cc3)n2)cc1OC` [Decoy921], the Type result is recorded as “Inactive (Decoy)”.
As to `Cc1ccc(S(=O)(=O)Nc2ccccc2/C=N/CC(O)C/N=C/c2ccccc2NS(=O)(=O)c2ccc(C)cc2)cc1` [Decoy922], the Type entry is listed as “Inactive (Decoy)”.
As for `COc1ccc(NC(=O)CSc2nnc(NC(=O)c3cc(OC)c(OC)c(OC)c3)s2)cc1OC` [Decoy923], the Type entry is “Inactive (Decoy)”.
For `C=CCSc1ccccc1NC(=O)CSc1nnc(N/N=C/c2c(O)ccc3ccccc23)n1N` [Decoy924], the Type entry was “Inactive (Decoy)”.
